Reference: patent US12637471B2, “Heterocyclic compounds, compositions, methods of preparation and uses thereof” (Organon R&D Finland Ltd, priority 2021, dated 2026)

Columns and labels:
Assay type in all cases: biochemical
[1] = biological target: T1, 17β-Hydroxysteroid Dehydrogenase Type 2 Enzyme (17β-HSD2) (Homo sapiens, UniProt P37059); assay: Inhibition of the 17β-hydroxysteroid dehydrogenase type 2 enzyme, 3H-testosterone conversion; conditions: inhibitor at 10 μM
T1 construct: made in house; host or cells: Sf-9 insect cells (baculovirus)
T1 sequence (P37059 1-387): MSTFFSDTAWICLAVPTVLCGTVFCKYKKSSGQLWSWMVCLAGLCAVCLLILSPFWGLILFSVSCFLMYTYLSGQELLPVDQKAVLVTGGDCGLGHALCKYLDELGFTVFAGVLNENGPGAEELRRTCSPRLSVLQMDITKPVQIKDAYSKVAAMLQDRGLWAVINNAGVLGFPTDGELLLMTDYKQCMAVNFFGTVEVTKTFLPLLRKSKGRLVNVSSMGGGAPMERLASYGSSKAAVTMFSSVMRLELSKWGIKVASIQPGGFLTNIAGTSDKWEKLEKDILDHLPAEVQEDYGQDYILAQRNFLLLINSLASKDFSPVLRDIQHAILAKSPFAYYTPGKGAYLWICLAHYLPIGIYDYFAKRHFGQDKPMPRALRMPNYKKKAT
Outline: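 Single-point screen at 10 μM inhibitor, 1% DMSO: Sf-9-expressed human enzyme (105 nM), NAD 1 mM, ³H-labelled testosterone 56.25 nM, pH 8.5 phosphate/EDTA buffer, 30 min, room temperature. After TCA quench, substrate and product radioactivity quantified by UPLC with scintillation detection; inhibition percent from conversion.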

[2] = biological target: T2, Recombinant human aldo-keto reductase family 1 member C2 (AKR1C2) protein (Homo sapiens, UniProt P52895); assay: Inhibition of the aldo-keto reductase family 1 member C2, 3H-dihydrotestosterone conversion; conditions: inhibitor at 10 μM
T2 construct: made in house; host or cells: Sf-9 insect cells (baculovirus)
T2 sequence (P52895 1-323): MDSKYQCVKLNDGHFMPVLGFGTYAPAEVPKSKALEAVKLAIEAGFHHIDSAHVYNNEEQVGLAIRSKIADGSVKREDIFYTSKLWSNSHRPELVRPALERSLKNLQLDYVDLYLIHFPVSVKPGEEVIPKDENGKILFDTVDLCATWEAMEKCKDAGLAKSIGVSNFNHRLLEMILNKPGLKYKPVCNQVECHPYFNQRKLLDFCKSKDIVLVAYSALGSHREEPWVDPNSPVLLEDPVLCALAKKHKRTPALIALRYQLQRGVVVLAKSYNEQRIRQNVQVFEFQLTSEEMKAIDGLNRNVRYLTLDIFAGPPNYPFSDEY
Outline: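 Single-point screen at 10 μM inhibitor, 1% DMSO: [3H]DHT (6.25 nM) reduction to 3α-diol by baculovirus-made AKR1C2 (13.6 nM), pH 7.4 phosphate buffer, 1 mM NADPH, 37 °C for 45 min. Radio-UPLC quantified product versus substrate to give percent inhibition.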

[3] = biological target: T3, Recombinant human AKR1C3 (17β-HSD5) protein (Homo sapiens, UniProt P42330); assay: Inhibition of AKR1C3 (17β-hydroxysteroid dehydrogenase type 5) enzyme, fluorescence assay; conditions: inhibitor at 500 nM
T3 construct: made in house; host or cells: E. coli
T3 sequence (P42330 1-323): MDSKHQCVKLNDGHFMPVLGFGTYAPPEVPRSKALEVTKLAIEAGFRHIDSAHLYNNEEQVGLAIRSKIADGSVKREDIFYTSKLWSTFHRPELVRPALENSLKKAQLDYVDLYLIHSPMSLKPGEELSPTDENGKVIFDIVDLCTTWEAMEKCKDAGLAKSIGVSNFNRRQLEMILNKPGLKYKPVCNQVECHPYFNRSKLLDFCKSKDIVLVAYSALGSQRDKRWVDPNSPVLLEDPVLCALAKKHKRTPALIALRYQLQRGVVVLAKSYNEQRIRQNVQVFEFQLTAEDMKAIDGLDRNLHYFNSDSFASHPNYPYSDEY
Outline: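 Percent inhibition at 500 nM compound, derived from substrate conversion; product alcohol measured by fluorescence (ex 420, em 510 nm) against a 1 μM–10 nM standard curve. Reaction: 27 nM recombinant AKR1C3, 1 μM ketone substrate, 1 mM NADPH, phosphate/EDTA buffer pH 7.4, 1% DMSO, RT for 60–120 min.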

SMILES | inhibition at 10 µM [1] [%] | inhibition at 10 µM [2] [%] | inhibition at 0.5 µM [3] [%]
CC(=O)n1ncc2c(C(C#N)=C3CCN(C(=O)N4CCc5nocc5C4)CC3)cccc21 [Compound 93, 2-(1-acetyl-1H-indazol-4-yl)-2-(1-(4,5,6,7-tetrahydroisoxazolo[4,3-c]pyridine-5-carbonyl)piperidin-4-ylidene)acetonitrile] | 23 | 11 | 98
N#CC(=C1CCN(C(=O)N2CCC(O)CC2)CC1)c1n[nH]c2ccc(F)cc12 [Compound 94, 2-(5-fluoro-1H-indazol-3-yl)-2-(1-(4-hydroxypiperidine-1-carbonyl)piperidin-4-ylidene)acetonitrile] | 8 | 7 | 97
N#CC(=C1CCN(C(=O)N2CCC(CCCO)CC2)CC1)c1cccc(Cl)c1 [Compound 95, 2-(3-chlorophenyl)-2-(1-(4-(3-hydroxypropyl)piperidine-1-carbonyl)piperidin-4-ylidene)acetonitrile] | 25 | 22 | 94
CC(=O)N1CCN(C(=O)N2CCC(=C(C#N)c3cccc(Cl)c3)CC2)CC1 [Compound 96, 2-(1-(4-acetylpiperazine-1-carbonyl)piperidin-4-ylidene)-2-(3-chlorophenyl)acetonitrile] | 11 | 13 | 95
N#CC(=C1CCN(C(=O)N2CCC(CCO)CC2)CC1)c1ccc(F)cc1 [Compound 97, 2-(4-fluorophenyl)-2-(1-(4-(2-hydroxyethyl)piperidine-1-carbonyl)piperidin-4-ylidene)acetonitrile] | 9 | 9 | 96
N#CC(=C1CCN(C(=O)N2CCC(C(F)(F)F)CC2)CC1)c1ccc(F)cc1 [Compound 98, 2-(4-fluorophenyl)-2-(1-(4-(trifluoromethyl)piperidine-1-carbonyl)piperidin-4-ylidene)acetonitrile] | 18 | 8 | 97
N#CC(=C1CCN(C(=O)N2CCC(S(N)(=O)=O)CC2)CC1)c1cccc(Cl)c1 [Compound 99, 1-(4-((3-chlorophenyl)(cyano)methylene)piperidine-1-carbonyl)piperidine-4-sulfonamide] | 18 | 16 | 96
N#CC(=C1CCN(C(=O)N2CCSCC2)CC1)c1ccc(F)cc1 [Compound 100, 2-(4-fluorophenyl)-2-(1-(thiomorpholine-4-carbonyl)piperidin-4-ylidene)acetonitrile] | -2 | 6 | 92
N#CC(=C1CCN(C(=O)N2CC3CCCC3C2)CC1)c1ccc(F)cc1 (stereo not drawn) [Compound 101, 2-(4-fluorophenyl)-2-(1-(octahydrocyclopenta[c]pyrrole-2-carbonyl)piperidin-4-ylidene)acetonitrile] | 14 | 11 | 90
N#CC(=C1CCN(C(=O)N2CCc3ccccc32)CC1)c1ccc(F)cc1 [Compound 102, 2-(4-fluorophenyl)-2-(1-(indoline-1-carbonyl)piperidin-4-ylidene)acetonitrile] | 12 | 17 | 99
CN(C(=O)N1CCC(=C(C#N)c2ccc(Cl)s2)CC1)C1COC1 [Compound 103, 4-((5-chlorothiophen-2-yl)(cyano)methylene)-N-methyl-N-(oxetan-3-yl)piperidine-1-carboxamide] | -4 | 19 | 95
N#CC(=C1CCN(C(=O)N2CCCCC2)CC1)c1ccc(Cl)cc1 [Compound 104, 2-(4-chlorophenyl)-2-(1-(piperidine-1-carbonyl)piperidin-4-ylidene)acetonitrile] | 0 | 5 | 96
CCN(CC)C(=O)N1CCC(=C(C#N)c2ccc(Cl)cc2)CC1 [Compound 105, 4-((4-chlorophenyl)(cyano)methylene)-N,N-diethylpiperidine-1-carboxamide] | 15 | 10 | 100
COCC1CCN(C(=O)N2CCC(=C(C#N)c3ccc(F)cc3)CC2)CC1 [Compound 106, 2-(4-fluorophenyl)-2-(1-(4-(methoxymethyl)piperidine-1-carbonyl)piperidin-4-ylidene)acetonitrile] | 2 | 5 | 93
N#CC(=C1CCN(C(=O)N2CCCC(O)CC2)CC1)c1ccc(F)cc1 (stereo not drawn) [Compound 107, 2-(4-fluorophenyl)-2-(1-(4-hydroxyazepane-1-carbonyl)piperidin-4-ylidene)acetonitrile] | -1 | 14 | 92
N#CC(=C1CCN(C(=O)N2CCc3sccc3C2)CC1)c1ccc(F)cc1 [Compound 108, 2-(4-fluorophenyl)-2-(1-(4,5,6,7-tetrahydrothieno[3,2-c]pyridine-5-carbonyl)piperidin-4-ylidene)acetonitrile] | -11 | 21 | 98
N#CC(=C1CCN(C(=O)N2CCc3cc(F)ccc32)CC1)c1ccc(F)cc1 [Compound 109, 2-(1-(5-fluoroindoline-1-carbonyl)piperidin-4-ylidene)-2-(4-fluorophenyl)acetonitrile] | 26 | 12 | 96
C[C@@H]1CCCCN1C(=O)N1CCC(=C(C#N)c2ccc(F)cc2)CC1 [Compound 110, (R)-2-(4-fluorophenyl)-2-(1-(2-methylpiperidine-1-carbonyl)piperidin-4-ylidene)acetonitrile] | 30 | 6 | 96
N#CC(=C1CCN(C(=O)N2C[C@@H]3CC[C@@H]2C3)CC1)c1ccc(F)cc1F [Compound 111, 2-(1-((1R,4R)-2-azabicyclo[2.2.1]heptane-2-carbonyl)piperidin-4-ylidene)-2-(2,4-difluorophenyl)acetonitrile] | 8 | 13 | 95
N#CC(=C1CCN(C(=O)N2CCc3sccc3C2)CC1)c1ccc(F)cc1F [Compound 112, 2-(2,4-difluorophenyl)-2-(1-(4,5,6,7-tetrahydrothieno[3,2-c]pyridine-5-carbonyl)piperidin-4-ylidene)acetonitrile] | 17 | 30 | 96
N#CC(=C1CCN(C(=O)N2CCc3[nH]ncc3C2)CC1)c1ccc(Cl)cc1 [Compound 113, 2-(4-chlorophenyl)-2-(1-(4,5,6,7-tetrahydro-1H-pyrazolo[4,3-c]pyridine-5-carbonyl)piperidin-4-ylidene)acetonitrile] | 16 | 19 | 104
N#CC(=C1CCN(C(=O)N2CCc3sccc3C2)CC1)c1cccc2[nH]ncc12 [Compound 114, 2-(1H-indazol-4-yl)-2-(1-(4,5,6,7-tetrahydrothieno[3,2-c]pyridine-5-carbonyl)piperidin-4-ylidene)acetonitrile] | 34 | 11 | 97
